Source: ChEMBL document CHEMBL1138416, “Synthesis and SAR of potent and selective androgen receptor antagonists: 5,6-Dichloro-benzimidazole derivatives” (Bioorg Med Chem Lett, 2007)
Active and inactive are the calls of the source. No cut-off for these calls is given here.

Columns and labels:
Rattus norvegicus [1] = species on record: Rattus norvegicus; experiment: Inhibition of prostate weight in testosterone treated castrated immature Sprague-Dawley rat at 2 mg/day; format: functional, Prostate gland; conditions: for inhibition: Prostate gland
[2] = Bioavailability in orally dosed Sprague-Dawley rat; format: ADME, organism-based; conditions: in vivo, po
[3] = Half life in orally dosed Sprague-Dawley rat; format: ADME, organism-based; conditions: in vivo, po
Rattus norvegicus [4] = species on record: Rattus norvegicus; experiment: Inhibition of prostate weight in testosterone treated castrated mature Sprague-Dawley rat; format: functional; conditions: Prostate gland, read-out: ID50 (the source's name)
Rattus norvegicus [5] = species on record: Rattus norvegicus; experiment: Inhibition of prostate weight in testosterone treated castrated immature Sprague-Dawley rat; format: functional, Prostate gland
[6] = target: T1, Androgen receptor (Homo sapiens) (UniProt P10275); experiment: Antagonist activity at androgen receptor expressed in COS cell at 3000 nM by whole cell assay; format: functional, cell-based
T1 sequence (whole entry): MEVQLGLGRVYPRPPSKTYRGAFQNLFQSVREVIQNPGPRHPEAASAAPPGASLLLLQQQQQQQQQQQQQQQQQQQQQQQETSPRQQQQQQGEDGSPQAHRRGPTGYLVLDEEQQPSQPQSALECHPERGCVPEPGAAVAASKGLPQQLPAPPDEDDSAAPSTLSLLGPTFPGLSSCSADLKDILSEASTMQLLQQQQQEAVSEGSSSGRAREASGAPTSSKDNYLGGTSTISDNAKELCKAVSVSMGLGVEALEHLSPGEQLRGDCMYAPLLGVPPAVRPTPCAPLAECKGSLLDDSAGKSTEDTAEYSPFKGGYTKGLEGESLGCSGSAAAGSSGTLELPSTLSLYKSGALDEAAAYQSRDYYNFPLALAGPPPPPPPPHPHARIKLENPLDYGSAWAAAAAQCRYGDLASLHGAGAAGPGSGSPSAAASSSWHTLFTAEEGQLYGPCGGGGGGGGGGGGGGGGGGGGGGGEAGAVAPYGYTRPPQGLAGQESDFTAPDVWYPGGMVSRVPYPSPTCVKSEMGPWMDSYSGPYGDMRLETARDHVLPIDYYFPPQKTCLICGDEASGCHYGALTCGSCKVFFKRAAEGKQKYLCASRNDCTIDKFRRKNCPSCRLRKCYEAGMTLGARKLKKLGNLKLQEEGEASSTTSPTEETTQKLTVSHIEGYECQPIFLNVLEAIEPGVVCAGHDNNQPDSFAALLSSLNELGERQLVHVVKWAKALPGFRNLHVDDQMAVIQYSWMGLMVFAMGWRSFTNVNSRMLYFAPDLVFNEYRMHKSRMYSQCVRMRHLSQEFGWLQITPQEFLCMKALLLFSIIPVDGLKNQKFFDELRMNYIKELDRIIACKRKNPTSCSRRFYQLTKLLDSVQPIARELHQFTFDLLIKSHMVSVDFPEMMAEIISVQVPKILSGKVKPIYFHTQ

[7] = target: T1, Androgen receptor (Homo sapiens); experiment: Antagonist activity at androgen receptor expressed in COS cell by whole cell assay; format: functional, cell-based
Rattus norvegicus [8] = species on record: Rattus norvegicus; experiment: Inhibition of prostate weight in testosterone treated castrated immature Sprague-Dawley rat at 0.3 mg/day

| Compound | Inhibition (Rattus norvegicus [1]) [%] | further results |
| --- | --- | --- |
| CCS(=O)(=O)CC(C)(O)c1nc2cc(Cl)c(Cl)cc2n1C (stereo not drawn) | 79 | – |
| CC(C)c1nc2cc(Cl)c(Cl)cc2[nH]1 | 11 | – |
| Cn1c(C(C)(O)CS(=O)(=O)CC(F)(F)F)nc2cc(Cl)c(Cl)cc21 (stereo not drawn) | 38 | – |
| CCn1c(C(C)C)nc2cc(Cl)c(Cl)cc21 | 82 | – |
| CC(O)(CS(C)(=O)=O)c1nc2cc(Cl)c(Cl)cc2[nH]1 (stereo not drawn) | – | inhibition (Rattus norvegicus [1]): inactive |
| CC(O)(c1nc2cc(Cl)c(Cl)cc2[nH]1)C(F)(F)F (stereo not drawn) | 74 | – |
| COCn1c(C(C)(C)O)nc2cc(Cl)c(Cl)cc21 | 90 | – |
| CC(C)CSCC(C)(O)c1nc2cc(Cl)c(Cl)cc2n1C (stereo not drawn) | 9 | – |
| CC(O)(c1nc2cc(Cl)c(Cl)cc2[nH]1)c1ccco1 (stereo not drawn) | 20 | – |
| CC(C)(O)c1nc2cc(C#N)c(C(F)(F)F)cc2[nH]1 | 63 | – |
| CCn1c(C(C)(C)O)nc2cc(Cl)c(Cl)cc21 | 82 | – |
| CCSCC(C)(O)c1nc2cc(Cl)c(Cl)cc2n1CC (stereo not drawn) | 79 | bioavailability [2]: 15%; half-life [3]: 1 h |
| Cn1c(C(C)(O)CSCC(F)(F)F)nc2cc(Cl)c(Cl)cc21 (stereo not drawn) | 6 | – |
| CSCn1c(C(C)(C)O)nc2cc(Cl)c(Cl)cc21 | 96 | – |
| Cn1c(C(C)(C)O)nc2cc(Cl)c(Cl)cc21 | 91 | bioavailability [2]: 100%; half-life [3]: 3 h |
| CCCC(C)c1nc2cc(Cl)c(Cl)cc2n1C (stereo not drawn) | 23 | – |
| CCOCC(C)(O)c1nc2cc(Cl)c(Cl)cc2n1C (stereo not drawn) | 10 | – |
| CC(O)(CO)c1nc2cc(Cl)c(Cl)cc2[nH]1 (stereo not drawn) | 67 | – |
| CC(O)(CC#N)c1nc2cc(Cl)c(Cl)cc2[nH]1 (stereo not drawn) | 64 | – |
| Cn1c(C(C)(O)CS(=O)(=O)Cc2ccccc2)nc2cc(Cl)c(Cl)cc21 (stereo not drawn) | 16 | – |
| CCc1nc2cc(Cl)c(Cl)cc2[nH]1 | – | inhibition (Rattus norvegicus [1]): inactive |
| CCCCn1c(C(C)(C)O)nc2cc(Cl)c(Cl)cc21 | – | inhibition (Rattus norvegicus [1]): inactive |
| CCC(CC)c1nc2cc(Cl)c(Cl)cc2[nH]1 | 80 | – |
| CC(C)(O)c1nc2cc(Cl)c(C(F)(F)F)cc2[nH]1 | 42 | – |
| CC(O)(CS(=O)(=O)c1ccc(F)cc1)c1nc2cc(Cl)c(Cl)cc2[nH]1 (stereo not drawn) | 29 | – |
| CCC(C)c1nc2cc(Cl)c(Cl)cc2n1C (stereo not drawn) | – | inhibition (Rattus norvegicus [1]): inactive |
| CCSCC(C)(O)c1nc2cc(Cl)c(Cl)cc2n1C (stereo not drawn) | 86 | – |

| Compound | Inhibition (Rattus norvegicus [1]) [%] | further results |
| --- | --- | --- |
| CC(C)c1nc2cc(Cl)c(Cl)cc2n1C | 93 | – |
| CC(C)CS(=O)(=O)CC(C)(O)c1nc2cc(Cl)c(Cl)cc2n1C (stereo not drawn) | 7 | – |
| Cn1c(CC(F)(F)F)nc2cc(Cl)c(Cl)cc21 | 60 | – |
| Cc1ccc(S(=O)(=O)CC(C)(O)c2nc3cc(Cl)c(Cl)cc3[nH]2)cc1 (stereo not drawn) | 11 | – |
| COC(c1nc2cc(Cl)c(Cl)cc2n1C)C(F)(F)F (stereo not drawn) | 60 | – |
| CC(C)(O)c1nc2cc(F)c(Cl)cc2[nH]1 | 57 | – |
| CC(O)(c1nc2cc(Cl)c(Cl)cc2[nH]1)c1cccs1 (stereo not drawn) | 16 | – |
| Cn1c(C(C)(O)CSCc2ccccc2)nc2cc(Cl)c(Cl)cc21 (stereo not drawn) | 63 | – |
| FC(F)(F)Cc1nc2cc(Cl)c(Cl)cc2[nH]1 | 90 | ED50 (Rattus norvegicus [4]): 18 mg/kg; ID50 (Rattus norvegicus [5]): 0.097 mg/day; inhibition [6]: 30%; half-life [3]: 5.3 h |
| CCC(C)c1nc2cc(Cl)c(Cl)cc2[nH]1 (stereo not drawn) | 88 | – |
| CCC(CC)c1nc2cc(Cl)c(Cl)cc2n1C | 77 | – |
| CCC(CC)c1nc2cc(Cl)c(Cl)cc2n1CC | 3 | – |
| CC(O)c1nc2cc(Cl)c(Cl)cc2[nH]1 (stereo not drawn) | – | inhibition (Rattus norvegicus [1]): inactive |
| Cn1c(C(O)(O)C(F)(F)F)nc2cc(Cl)c(Cl)cc21 | 94 | ED50 (Rattus norvegicus [4]): 23 mg/kg; ID50 (Rattus norvegicus [5]): 0.17 mg/day |
| CCn1c(C(C)(O)CS(=O)(=O)CC)nc2cc(Cl)c(Cl)cc21 (stereo not drawn) | 74 | bioavailability [2]: 99%; inhibition [6]: 20%; half-life [3]: 15 h |
| CCCS(=O)(=O)CC(C)(O)c1nc2cc(Cl)c(Cl)cc2n1C (stereo not drawn) | 26 | – |
| CC(C)(O)c1nc2cc(Cl)c(Cl)cc2n1CC#N | 5 | – |
| Cn1c(C(C)(O)CSc2ccc(F)cc2)nc2cc(Cl)c(Cl)cc21 (stereo not drawn) | 6 | – |
| CCCn1c(C(C)(C)O)nc2cc(Cl)c(Cl)cc21 | 53 | – |
| CC(O)(CS(=O)(=O)c1ccc(F)cc1)C(=O)Nc1ccc(C#N)c(C(F)(F)F)c1 (stereo not drawn) [BICALUTAMIDE] | 70 | ED50 (Rattus norvegicus [4]): 30 mg/kg; ID50 (Rattus norvegicus [5]): 0.23 mg/day |
| CCCSCC(C)(O)c1nc2cc(Cl)c(Cl)cc2n1C (stereo not drawn) | 40 | – |
| CCCC(C)c1nc2cc(Cl)c(Cl)cc2[nH]1 (stereo not drawn) | 32 | – |
| OC(c1nc2cc(Cl)c(Cl)cc2[nH]1)C(F)(F)F (stereo in doubt; 1) | 96 | ED50 (Rattus norvegicus [4]): 30 mg/kg; bioavailability [2]: 132%; ID50 (Rattus norvegicus [5]): 0.15 mg/day; half-life [3]: 14.7 h |
| CC(C)(O)c1nc2cc(Cl)c(Cl)cc2[nH]1 | 77 | bioavailability [2]: 100%; ID50 [7]: 80 nM; inhibition [6]: 90%; half-life [3]: 4 h |
| OC(c1nc2cc(Cl)c(Cl)cc2[nH]1)C(F)(F)F (stereo in doubt; (+)-1) | – | ID50 (Rattus norvegicus [5]): 0.032 mg/day; Inhibition (Rattus norvegicus [8]): 81% |
| OC(c1nc2cc(Cl)c(Cl)cc2[nH]1)C(F)(F)F (stereo in doubt; (-)-1) | – | ID50 (Rattus norvegicus [5]): 0.12 mg/day; Inhibition (Rattus norvegicus [8]): 80% |
